# Data from patent US7435837B2, “Dihydrobenzofuranyl alkanamine derivatives and methods for using same” (Wyeth, priority 2003, dated 2008).
# Counter-ions that a name gives are not always drawn.
# Legend:
# [1] = target: T1, human 5-hydroxytryptamine-2C (h5-HT2C) receptor (Homo sapiens, UniProt P28335); assay: [125I]DOI binding to membranes of CHO cells expressing the human 5-HT2C receptor; settings: [125I]DOI radioligand, CHO cell membranes, room temperature 60 min; read-out: 5-HT2C Affinity Ki
# T1 construct: expressed in transfected cells; host or cells: CHO (Chinese Hamster Ovary) cells; membranes
# T1 sequence (P28335 33-458): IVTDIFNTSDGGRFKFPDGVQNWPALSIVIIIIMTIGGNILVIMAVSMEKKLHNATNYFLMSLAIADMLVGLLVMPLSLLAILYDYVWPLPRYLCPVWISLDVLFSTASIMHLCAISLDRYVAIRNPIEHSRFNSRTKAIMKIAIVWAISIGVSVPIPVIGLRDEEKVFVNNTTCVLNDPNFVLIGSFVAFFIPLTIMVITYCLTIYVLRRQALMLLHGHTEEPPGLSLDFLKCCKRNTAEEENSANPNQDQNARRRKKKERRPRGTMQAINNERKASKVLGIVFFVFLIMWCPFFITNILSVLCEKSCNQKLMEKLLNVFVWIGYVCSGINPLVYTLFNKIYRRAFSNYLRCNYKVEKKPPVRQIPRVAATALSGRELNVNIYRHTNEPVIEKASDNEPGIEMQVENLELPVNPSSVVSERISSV
# [2] = target: T2, human 5-HT2C receptor (Homo sapiens, UniProt P28335); assay: 5-HT2C receptor-stimulated calcium mobilization (FLIPR) in CHO cells; assay type: cell-based; settings: for Emax: CHO, read-out: 5-HT2C Function Emax (%); for EC50: calcium mobilization, CHO cells stably expressing human 5-HT2C, read-out: 5-HT2C Function EC50;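 on all read-outs here: Fluo-3-AM fluorescence read on FLIPR every 1 s, agonist added after 10 baseline reads, response taken as peak minus lowest raw fluorescence count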
# T2 sequence (P28335 33-458): T1 sequence (P28335 33-458)
# [3] = percentage of the response observed with a maximally effective concentration of 5-HT
Compound,melting point,Ki [1],"Emax [2, 3]",EC50 [2],"5-HT2C Function Emax (%) [2, 3]"
"NCC1Cc2cccc(-c3ccccc3)c2O1 (single isomer, unassigned; (-)) (as salt: hydrochloride) [Example 38, (−)-1-(7-phenyl-2,3-dihydro-1-benzofuran-2-yl)methanamine]",220 to 222 °C,–,–,–,–
"Cc1ccccc1-c1cccc2c1CC(CN)O2 (single isomer, unassigned; (-)) (as salt: hydrobromid) [Example 6, (−)-1-[4-(2-methylphenyl)-2,3-dihydro-1-benzofuran-2-yl]methanamine]",231 to 233 °C,–,–,–,–
"NCC1Cc2cccc(-c3c(F)cccc3F)c2O1 (racemic) (as salt: hydrochloride) [Example 139, (±)-1-[7-(2,6-difluorophenyl)-2,3-dihydro-1-benzofuran-2-yl]methanamine]",219 to 222 °C,–,–,–,–
"Cc1c(Cl)cc(C(C)C)c2c1CC(CN)O2 (racemic) (as salt: hydrochloride) [Example 21, (±)-1-(5-chloro-7-isopropyl-4-methyl-2,3-dihydro-1-benzofuran-2-yl)methanamine]",> 225 °C (dec.),–,–,–,–
"NCC1Cc2cc(Cl)cc(-c3ccsc3)c2O1 (single isomer, unassigned; (-)) (as salt: hydrobromid) [Example 91, (−)-(5-chloro-7-thien-3-yl-2,3-dihydro-1-benzofuran-2-yl)methylamine]",277 to 280 °C,–,–,–,–
"Cc1cc2c(c(-c3ccccc3)c1)OC(CN)C2 (racemic) (as salt: hydrochloride) [Example 281, (±)-{[(5-methyl-7-phenyl-2,3-dihydro-1-benzofuran-2-yl)methyl]amine]",227 to 228 °C,–,–,–,–
"NCC1Cc2cccc(C3CCCC3)c2O1 (single isomer, unassigned; (-)) (as salt: hydrobromid) [Example 9, (−)-(7-cyclopentyl-2,3-dihydro-1-benzofuran-2-yl)methylamine]",208 to 211 °C,–,–,–,–
"NCC1Cc2cccc(-c3ccccc3)c2O1 (racemic) (as salt: hydrochloride) [Example 36, (±)-1-(7-phenyl-2,3-dihydro-1-benzofuran-2-yl)methanamine]",> 200 °C (dec.),–,–,–,–
"COc1cc2c(c(C(C)(C)C)c1)OC(CN)C2 (single isomer, unassigned; (-)) (as salt: hydrochloride) [Example 115, (−)-1-(7-tert-butyl-5-methoxy-2,3-dihydro-1-benzofuran-2-yl)methanamine]",157 to 159 °C,–,–,–,–
"NCC1Cc2cccc(-c3ccsc3)c2O1 (single isomer, unassigned; (-)) (as salt: hydrobromid) [Example 46, (−)-1-(7-thien-3-yl-2,3-dihydro-1-benzofuran-2-yl)methanamine]",234 to 235 °C,–,–,–,–
"COc1cc2c(c(-c3cc(C)ccc3C)c1)OC(CN)C2 (racemic) [Example 370, (±)-{[7-(2,5-dimethylphenyl)-5-methoxy-2,3-dihydro-1-benzofuran-2-yl]methyl}amine]",–,0.03 µM,80%,0.19 µM,–
"Cc1cccc(C)c1-c1cc(Cl)cc2c1OC(CN)C2 (racemic) [Example 260, (±)-{[5-chloro-7-(2,6-dimethylphenyl)-2,3-dihydro-1-benzofuran-2-yl]methyl}amine]",–,0.00013 µM,90%,0.022 µM,–
"CNCC1Cc2cc(F)cc(-c3ccccc3C)c2O1 (racemic) [Example 440, (±)-{[5-fluoro-7-(2-methylphenyl)-2,3-dihydro-1-benzofuran-2-yl]methyl}methylamine]",–,0.0012 µM,100%,0.009 µM,–
"NCC1Cc2cc(F)cc(-c3cc(Cl)ccc3Cl)c2O1 (racemic) [Example 221, (±)-{[7-(2,5-dichlorophenyl)-5-fluoro-2,3-dihydro-1-benzofuran-2-yl]methyl}amine]",–,0.0014 µM,90%,0.002 µM,–
"NCC1Cc2cccc(-c3cccc(F)c3)c2O1 (racemic) [Example 64, (±)-1-[7-(3-fluorophenyl)-2,3-dihydro-1-benzofuran-2-yl]methanamine]",–,0.013 µM,100%,0.07 µM,–
"CNCC1Cc2cc(F)cc(-c3ccccc3C)c2O1 (single isomer, unassigned; (-)) [Example 441, (−)-{[5-fluoro-7-(2-methylphenyl)-2,3-dihydro-1-benzofuran-2-yl]methyl}methylamine]",–,0.01 µM,70%,0.531 µM,–
"CC(C)c1cccc2c1OC(CN)C2 (racemic) [Example 18, (±)-(7-isopropyl-2,3-dihydro-1-benzofuran-2-yl)methylamine]",–,0.005 µM,100%,0.0096 µM,–
"NCC1Cc2cc(Cl)cc(-c3ccc(F)cc3F)c2O1 (racemic) [Example 250, (±)-{[5-chloro-7-(2,4-difluorophenyl)-2,3-dihydro-1-benzofuran-2-yl]methyl}amine]",–,0.0025 µM,90%,0.072 µM,–
"CNCC1Cc2cc(C)cc(-c3cccc(C)c3)c2O1 (racemic) [Example 478, (±)-{[7-(3-methylphenyl)-5-methyl-2,3-dihydro-1-benzofuran-2-yl]methyl}methylamine]",–,0.011 µM,70%,0.225 µM,–
"NCC1Cc2cccc(-c3ccc(F)cc3)c2O1 (single isomer, unassigned; (+)) [Example 74, (+)-1-[7-(4-fluorophenyl)-2,3-dihydro-1-benzofuran-2-yl]methanamine]",–,0.003 µM,100%,0.011 µM,–
"CNCC1Cc2cc(OC)cc(-c3cc(F)ccc3F)c2O1 (racemic) [Example 498, (±)-{[7-(2,5-difluorophenyl)-5-methoxy-2,3-dihydro-1-benzofuran-2-yl]methyl}methylamine]",–,0.035 µM,70%,0.326 µM,–
"CNCC1Cc2cc(OC)cc(-c3cccc(C)c3C)c2O1 (racemic) [Example 496, (±)-{[7-(2,3-dimethylphenyl)-5-methoxy-2,3-dihydro-1-benzofuran-2-yl]methyl}methylamine]",–,0.046 µM,60%,0.51 µM,–
"CNCC1Cc2cc(F)cc(-c3ccccc3OC)c2O1 (racemic) [Example 443, (±)-{[5-fluoro-7-(2-methoxyphenyl)-2,3-dihydro-1-benzofuran-2-yl]methyl}methylamine]",–,0.0048 µM,90%,0.005 µM,–
"NCC1Cc2cc(F)cc(-c3ccncc3)c2O1 (racemic) [Example 209, (±)-[(5-fluoro-7-pyridin-4-yl-2,3-dihydro-1-benzofuran-2-yl)methyl]amine]",–,0.0023 µM,90%,0.057 µM,–
"CC(C)c1cc2c(c(-c3ccccc3Cl)c1)OC(CN)C2 (racemic) [Example 308, (±)-{[5-isopropyl-7-(2-chlorophenyl)-2,3-dihydro-1-benzofuran-2-yl]methyl}amine]",–,0.0009 µM,90%,0.024 µM,–
"Cc1cc(Cl)ccc1-c1cccc2c1OC(CN)C2 (single isomer, unassigned; (-)) [Example 159, (−)-{[7-(4-chloro-2-methylphenyl)-2,3-dihydro-1-benzofuran-2-yl]methyl}amine]",–,0.012 µM,–,0.636 µM,80%
